One experiment has as its target T1, FAS (Homo sapiens, UniProt P49327).
T1 construct: Human FAS was purified from cultured ZR-75-1 human breast cancer cells; endogenous in cells
Nature of the experiment: FAS (IC50) marked (SB). The settings on record: value marked (SB), not defined. It is filed as biochemical.

Experiment [1] has as its system fatty acid synthesis pathway activity in MCF-7 human breast cancer cells. Nature of the experiment: [14C]acetate incorporation into total lipids. The class given is cell-based. The settings on record: Homo sapiens, MCF7; MCF-7 cells, [14C]acetate into lipids. Here is the method:
This assay measures the incorporation of [^14C]acetate into total lipids and is a measure of fatty acid synthesis pathway activity in vitro. It is utilized to measure inhibition of fatty acid synthesis in vitro.
MCF-7 human breast cancer cells cultured as above, are plated at 5×10^4 cells per well in 24-well plates. Following overnight incubation, the compounds to be tested, solubilized in DMSO, are added at 5, 10, and 20 μg/ml in triplicate, with lower concentrations tested if necessary. DMSO is added to triplicate wells for a vehicle control. C75 is run at 5 and 10 μg/ml in triplicate as positive controls. After 4 hours of incubation, 0.25 μCi of [^14C]acetate (10 μl volume) is added to each well.
After 2 hours of additional incubation, medium is aspirated from the wells and 800 μl of chloroform:methanol (2:1) and 700 μl of 4 mM MgCl2 is added to each well. Contents of each well are transferred to 1.5 Eppendorf tubes, and spun at full-speed for 2 minutes in a high-speed Eppendorf Microcentrifuge 5415D. After removal of the aqueous (upper) layer, an additional 700 μl of chloroform:methanol (2:1) and 500 μl of 4 mM MgCl2 are added to each tube and then centrifuged for 1 minutes as above. The aqueous layer is removed with a Pasteur pipette and discarded. An additional 400 μl of chloroform:methanol (2:1) and 200 μl of 4 mM MgCl2 are added to each tube, then centrifuged and aqueous layer is discarded. The lower (organic) phase is transferred into a scintillation vial and dried at 40° C. under N2 gas. Once dried, 3 ml of scintillant (APB #NBC5104) is added and vials are counted for ^14C. The Beckman Scintillation counter calculates the average cpm values for triplicates.
The IC50 for the compounds is defined as the concentration of drug leading to a 50% reduction in [^14C]acetate incorporation into lipids compared to controls. This is determined by plotting the average cpm for each inhibitor concentration tested, performing linear regression and computing the best-fit line, r^2 values, and 95% confidence intervals. The average cpm values are computed by the Beckman scintillation counter (Model LS6500) for each compound concentration. Computation of linear regression, best-fit line, r^2, and 95% confidence intervals are calculated using Prism Version 3.0 (Graph Pad Software).

Experiment [2] deals with MCF-7 human breast cancer cells. Nature of the experiment: XTT cytotoxicity assay (M / MCF7). The class given is cell-based. The settings on record: MCF-7 cells, 72 hours. Here is the method:
The XTT assay is a non-radioactive alternative for the [^51Cr] release cytotoxicity assay. XTT is a tetrazolium salt that is reduced to a formazan dye only by metabolically active, viable cells. The reduction of XTT is measured spectrophotometrically as OD490-OD650. To measure the cytotoxicity of specific compounds against cancer cells, 9×10^3 MCF-7 human breast cancer cells, obtained from the American Type Culture Collection are plated per well in 96 well plates in DMEM medium with 10% fetal bovine serum, insulin, penicillin, and streptomycin. Following overnight culture at 37° C. and 5% CO2, the compounds to be tested, dissolved in DMSO, are added to the wells in 1 μl volume at the following concentrations: 80, 40, 20, 10, 5, 2.5, 1.25, and 0.625 μg/ml in triplicate. Additional concentrations are tested if required. 1 μl of DMSO is added to triplicate wells are the vehicle control. C75 is run at 40, 20, […], and 5 μg/ml in triplicate as positive controls. After 72 hours of incubation, cells are incubated for 4 hours with the XTT reagent as per manufacturer's instructions (Cell Proliferation Kit 11 (XTT) Roche). Plates are read at OD490 and OD650 on a Molecular Devices SpectraMax Plus Spectrophotometer. Three wells containing the XTT reagent without cells serve as the plate blank. XTT data are reported as OD490-OD650. Averages and standard error of the mean are computed using SOFTmax Pro software ([…]). The IC50 for the compounds is defined as the concentration of drug leading to a 50% reduction in OD490-OD650 compared to controls. The OD490-OD650 are computed by the SOFTmax PRO software (Molecular Devices) for each compound concentration. IC50 is calculated by linear regression, plotting the FAS activity as percent of control versus drug concentrations. Linear regression, best-fit line, r^2, and 95% confidence intervals are determined using Prism Version 3.0 (Graph Pad Software).
For orientation: Tetrazolium assays rely on reduction of a dye to a coloured formazan, in cell work by metabolically active cells.

For a further experiment, the system named is OV. Nature of the experiment: XTT cytotoxicity assay (OV). It is filed as cell-based. Particulars: (OV) cells. Here is the method: The XTT assay is a non-radioactive alternative for the [^51Cr] release cytotoxicity assay. XTT is a tetrazolium salt that is reduced to a formazan dye only by metabolically active, viable cells. The reduction of XTT is measured spectrophotometrically as OD490-OD650. After 72 hours of incubation, cells are incubated for 4 hours with the XTT reagent as per manufacturer's instructions (Cell Proliferation Kit 11 (XTT) Roche). Plates are read at OD490 and OD650 on a Molecular Devices SpectraMax Plus Spectrophotometer. Three wells containing the XTT reagent without cells serve as the plate blank. XTT data are reported as OD490-OD650. Averages and standard error of the mean are computed using SOFTmax Pro software (Molecular Dynamics). The IC50 for the compounds is defined as the concentration of drug leading to a 50% reduction in OD490-OD650 compared to controls. The OD490-OD650 are computed by the SOFTmax PRO software (Molecular Devices) for each compound concentration. IC50 is calculated by linear regression, plotting the FAS activity as percent of control versus drug concentrations. Linear regression, best-fit line, r^2, and 95% confidence intervals are determined using Prism Version 3.0 (Graph Pad Software).

Experiment [3] relates to MCF-7 human breast cancer cells. Nature of the experiment: Crystal violet cell growth assay. The settings on record: MCF7, MCF-7 cells, 72 hours, read-out: Cr. Violet (IC50). The class given is cell-based. The method, then:
The crystal violet assay measures cell growth but not cytotoxicity. This assay employs crystal violet staining of fixed cells in 96-well plates with subsequent solubilization and measurement of OD490 on a spectrophotometer. The OD490 corresponds to cell growth per unit time measured. Cells are treated with the compounds of interest or vehicle controls and IC50 for each compound is computed.
To measure the cytotoxicity of specific compounds against cancer cells, 5×10^4 MCF-7 human breast cancer cells, obtained from the American Type Culture Collection are plated per well in 24 well plates in DMEM medium with 10% fetal bovine serum, penicillin, and streptomycin. Following overnight culture at 37° C. and 5% CO2, the compounds to be tested, dissolved in DMSO, are added to the wells in 1 μl volume at the following concentrations: 50, 40, 30, 20, and 10 μg/ml in triplicate. Additional concentrations are tested if required. 1 μl of DMSO is added to triplicate wells are the vehicle control. C75 is run at 10, and 5 μg/ml in triplicate as positive controls.
After 72 hours of incubation, cells are stained with 0.5 ml of Crystal Violet stain (0.5% in 25% methanol) in each well. After 10 minutes, wells are rinsed, air dried, and then solubilized with 0.5 ml 10% sodium dodecylsulfate with shaking for 2 hours. Following transfer of 100 μl from each well to a 96-well plate, plates are read at OD490 on a Molecular Devices SpectraMax Plus Spectrophotometer Average OD490 values are computed using SOFTmax Pro Software (Molecular Devices) and IC50 values are determined by linear regression analysis using Prism version 3.02 (Graph Pad Software, San Diego).

A short description of the next experiment: Weight loss screen. The class given is in vivo, Balb/C mice. The settings on record: 60 mg/kg intraperitoneally, day 2. Here is the method: Balb/C mice (Jackson Labs) are utilized for the initial weight loss screening. Animals are housed in temperature and 12 hour day/night cycle rooms and fed mouse chow and water ad lib. Three mice are utilized for each compound tested with vehicle controls in triplicate per experiment. For the experiments, mice are housed separately for each compound tested three mice to a cage. Compounds are diluted in DMSO at 10 mg/ml and mice are injected intraperitoneally with 60 mg/kg in approximately 100 μl of DMSO or with vehicle alone. Mice are observed and weighed daily; average weights and standard errors are computed with Excel (Microsoft). The experiment continues until treated animals reach their pretreatment weights. Select compounds are tested in animals housed in metabolic cages. Dosing of animals are identical to the screening experiments with three animals to a single metabolic cage. Animal weights, water and food consumption, and urine and feces production are measured daily.

The target in experiment [4] is rat liver acyl-CoA synthetase. Particulars: rat liver enzyme; read-out: 50% inhibition of rat liver acyl-CoA synthetase; cited from earlier work.
Another experiment concerns Raji cells. The settings on record: cited from earlier work.
The target of a further experiment is HIV protease (Human immunodeficiency virus type 1 group M subtype B, UniProt P04585). The settings on record: cited from earlier work.
For experiment [5], the system named is Mycobacterium tuberculosis. Particulars: in vitro; cited from earlier work.

Molecules are shown by their SMILES. ≈ marks a conversion by molar mass, not a printed value.

T1 sequence (P49327 whole entry): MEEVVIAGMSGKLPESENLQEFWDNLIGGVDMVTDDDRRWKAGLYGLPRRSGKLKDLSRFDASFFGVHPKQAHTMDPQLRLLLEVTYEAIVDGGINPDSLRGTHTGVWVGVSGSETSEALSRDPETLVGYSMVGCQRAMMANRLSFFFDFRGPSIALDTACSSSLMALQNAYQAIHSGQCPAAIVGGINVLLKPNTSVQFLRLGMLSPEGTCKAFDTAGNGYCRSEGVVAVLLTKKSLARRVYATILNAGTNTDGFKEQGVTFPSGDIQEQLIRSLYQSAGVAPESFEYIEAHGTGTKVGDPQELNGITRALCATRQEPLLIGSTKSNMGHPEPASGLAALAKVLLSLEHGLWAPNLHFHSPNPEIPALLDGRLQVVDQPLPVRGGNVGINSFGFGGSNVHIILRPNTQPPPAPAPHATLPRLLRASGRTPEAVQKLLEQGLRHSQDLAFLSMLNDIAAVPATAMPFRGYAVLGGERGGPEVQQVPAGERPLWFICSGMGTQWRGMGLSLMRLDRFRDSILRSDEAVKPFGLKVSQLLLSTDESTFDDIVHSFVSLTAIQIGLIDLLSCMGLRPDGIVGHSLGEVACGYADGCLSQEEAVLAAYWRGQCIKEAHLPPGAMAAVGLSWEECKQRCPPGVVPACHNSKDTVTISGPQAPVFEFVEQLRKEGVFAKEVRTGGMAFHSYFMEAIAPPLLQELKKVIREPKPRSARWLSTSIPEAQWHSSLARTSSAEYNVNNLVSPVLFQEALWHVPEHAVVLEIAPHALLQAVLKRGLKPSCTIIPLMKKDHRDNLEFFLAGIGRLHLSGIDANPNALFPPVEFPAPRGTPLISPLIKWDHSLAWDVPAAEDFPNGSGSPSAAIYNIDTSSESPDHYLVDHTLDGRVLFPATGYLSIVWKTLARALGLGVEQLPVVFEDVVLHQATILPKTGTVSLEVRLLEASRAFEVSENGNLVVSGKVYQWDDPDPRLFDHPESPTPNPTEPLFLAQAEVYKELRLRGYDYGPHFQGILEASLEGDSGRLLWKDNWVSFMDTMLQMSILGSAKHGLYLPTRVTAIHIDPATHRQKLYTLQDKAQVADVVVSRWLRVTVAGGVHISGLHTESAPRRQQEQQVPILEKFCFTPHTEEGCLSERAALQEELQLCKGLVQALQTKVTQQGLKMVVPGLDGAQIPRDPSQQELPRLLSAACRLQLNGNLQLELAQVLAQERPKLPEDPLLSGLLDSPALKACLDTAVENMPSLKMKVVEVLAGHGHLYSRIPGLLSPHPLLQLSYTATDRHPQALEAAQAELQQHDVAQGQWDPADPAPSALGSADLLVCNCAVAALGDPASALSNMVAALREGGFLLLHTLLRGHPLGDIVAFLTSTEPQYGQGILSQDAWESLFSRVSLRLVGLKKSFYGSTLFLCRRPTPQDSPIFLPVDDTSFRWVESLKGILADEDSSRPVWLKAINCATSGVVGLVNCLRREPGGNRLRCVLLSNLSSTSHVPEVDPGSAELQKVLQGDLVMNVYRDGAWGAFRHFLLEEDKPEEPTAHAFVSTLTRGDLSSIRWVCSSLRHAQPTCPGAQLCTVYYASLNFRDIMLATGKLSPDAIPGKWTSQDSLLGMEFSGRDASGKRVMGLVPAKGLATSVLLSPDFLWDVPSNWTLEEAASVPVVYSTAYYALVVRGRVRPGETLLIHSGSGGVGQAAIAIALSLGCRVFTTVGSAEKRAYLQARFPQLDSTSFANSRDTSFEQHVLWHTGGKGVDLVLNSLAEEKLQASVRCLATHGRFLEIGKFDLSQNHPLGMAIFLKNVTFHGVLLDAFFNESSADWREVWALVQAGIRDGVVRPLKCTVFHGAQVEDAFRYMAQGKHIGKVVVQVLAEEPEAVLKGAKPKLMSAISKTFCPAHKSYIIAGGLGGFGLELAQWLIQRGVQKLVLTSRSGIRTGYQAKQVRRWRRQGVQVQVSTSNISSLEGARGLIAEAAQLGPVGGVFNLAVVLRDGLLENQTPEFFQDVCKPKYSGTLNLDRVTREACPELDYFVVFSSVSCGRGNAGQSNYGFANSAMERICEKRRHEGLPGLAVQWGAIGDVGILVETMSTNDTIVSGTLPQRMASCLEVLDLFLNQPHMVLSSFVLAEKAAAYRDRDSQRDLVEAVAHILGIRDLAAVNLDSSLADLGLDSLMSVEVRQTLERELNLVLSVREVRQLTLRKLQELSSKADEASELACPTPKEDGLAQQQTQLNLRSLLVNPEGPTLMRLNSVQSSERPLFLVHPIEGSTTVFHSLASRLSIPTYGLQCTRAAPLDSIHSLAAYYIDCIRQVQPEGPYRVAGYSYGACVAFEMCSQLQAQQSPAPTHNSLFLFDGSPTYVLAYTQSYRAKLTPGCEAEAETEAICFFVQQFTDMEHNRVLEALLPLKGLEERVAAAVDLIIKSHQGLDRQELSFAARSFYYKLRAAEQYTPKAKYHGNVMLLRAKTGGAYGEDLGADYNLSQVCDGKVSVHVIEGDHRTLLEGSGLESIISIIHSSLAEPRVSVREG

Consider `CCCCCCCCNC(=O)c1cc(OCC(=O)OC)cs1`, for which the “FAS (IC50) (SB)” value at FAS is “Neg (SB)”. Besides, the IC50 in experiment [1] was 15.8 mg/L (≈ 48.3 µM); in experiment [2], 41.1 ± 2.6 mg/L (≈ 126 µM); in the experiment on OV it was 55 mg/L (≈ 168 µM); in experiment [3] it was 43.4 mg/L (≈ 133 µM).
Turning to `O=C(NNC(=O)c1cc(O)cs1)c1ccco1`, the IC50 is 135 µM at FAS, > 80 mg/L in experiment [2] and > 80 mg/L with OV. Also, in the experiment “Weight loss screen”, the “Weight Loss” value is 60 mg/kg: 1.5% (day 2).
For `O=C(NNc1ccc(Cl)cc1)c1cc(O)cs1`, the figures for the IC50 (against FAS; in experiment [2]; with OV) were 510 µM, 56.9 mg/L (≈ 212 µM) and 30 mg/L (≈ 112 µM), respectively.
With `CCCC=CCC=CC=CC=NN=NO` [Triacsin C, 1-hydroxy-3-(E, E, E-2′,4′,7′-undecatrienylidine) triazene], the IC50 in [4] was 8.7 µM. In addition, the “concentration causing growth inhibition in Raji cells” value in the experiment with Raji cells was 1.0 µM.
For the molecule `C/C=C/C/C=C/CCC(=O)[C@H]1O[C@H]1C(N)=O` [cerulenin, (2S,3R)-2,3-epoxy-4-oxo-7,10 dodecadienoyl amide], the “concentration for inhibition of viral HIV protease” value on HIV protease is 5 mg/mL. For the same molecule, the “activity against Mycobacterium tuberculosis” value in [5] is “no activity”.
